Experimental findings from ChEMBL document CHEMBL1201862, “PubChem BioAssay data set” (2004) are described below.

What is called AC50 is the concentration at which the activity in the assay is half-maximal.

The source made the active and inactive calls.

For the first assay, the target named is T1, Carboxy-terminal domain RNA polymerase II polypeptide A small phosphatase 1 (Homo sapiens, UniProt Q9GZU7).
T1 sequence (Q9GZU7 whole entry): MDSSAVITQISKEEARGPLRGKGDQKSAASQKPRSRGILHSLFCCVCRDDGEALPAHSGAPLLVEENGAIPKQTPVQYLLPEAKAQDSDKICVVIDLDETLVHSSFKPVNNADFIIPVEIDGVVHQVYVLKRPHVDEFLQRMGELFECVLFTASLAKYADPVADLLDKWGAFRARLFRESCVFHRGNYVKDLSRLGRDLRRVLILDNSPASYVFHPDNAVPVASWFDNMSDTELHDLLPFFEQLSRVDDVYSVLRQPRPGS
As to the kind of experiment: inhibitors of CTDSP1, concentration-response testing, biochemical assay, absorbance-based, actives from ultra-high-throughput screening (AID 540297).
Conditions: not given
It counts as functional.
For `O=C(CN1C(=O)S/C(=C\c2ccc(O)c([N+](=O)[O-])c2)C1=O)Nc1ccc(N2CCOCC2)cc1`, the IC50 was 2.65 µM (active).
On the same count and under the same terms, to `CC(=O)OCC1=C(C(=O)OC(C)(C)C)N2C(=O)[C@@H](NC(=O)Cc3ccccc3)[C@H]2SC1` belongs 8.61 µM (active); to `CCOC(=O)C1(C)Oc2ccccc2C(C(=O)OC)=C1C(=O)OC` (centres undefined), 23.6 µM (active).
Same read-out and setting: to `O=C(COC(=O)c1ccc(Br)o1)NCc1ccco1` belongs 9.79 µM (active).

Tested on in a further assay: not listed separately
As to the kind of experiment: Luminescence Cell-Based Dose Confirmation HTS to Identify Activators of 5'UTR Stem-Loop Driven Alpha-Synuclein mRNA Translation in H4 Neuroglioblastoma Cells. [Related pubchem assays: 1829 (Project Summary), 1814 (Primary HTS)].
Conditions: not given
The class given is functional.
Take `COc1ccc(NC(=O)Nc2cccc3cccnc23)cc1`: the EC50 is 21.7 µM (active).
Still for that read-out and setting: to `O=C1C(CSCc2ccccc2)NC(=S)N1c1ccccc1` (centres undefined) belongs > 120 µM (not active).
On the same count and under the same terms, to `CCOc1ccc(C2CC(c3ccc(CC)cc3)Nc3nc(N)nn32)cc1` (centres undefined) belongs > 120 µM (not active); to `Sc1nnc(-c2ccc(Cl)cc2Cl)n1-c1ccccc1`, 15.5 µM (active).
As to `CCOC(=O)c1cc(O)n2c(n1)nc1ccccc12`, the EC50 is 15.8 µM (active).
The same measure, in the same setting: to `CN1C(c2ccc(F)cc2)=CS/C1=C(/C#N)c1nnc(N2CCOCC2)n1-c1ccccc1` belongs > 120 µM (not active); to `Cc1ccc(Cn2ncn(-c3ccccc3)c2=O)cc1`, 14.4 µM (active).
Regarding `O=C1C2C3C=CC(C4CC34)C2C(=O)N1/N=C/c1c[nH]c2ccccc12` (centres undefined), the EC50 was 11 µM (active).

A further assay has as its system H4. As to the kind of experiment: Luminescence Cell-Based Dose Response HTS to Identify Activators of 5'UTR Stem-Loop Driven Prion Protein mRNA Translation in H4 Neuroglioblastoma Cells. [Related pubchem assays: 1829 (Project Summary), 1814 (Primary HTS)]. Conditions: Homo sapiens. The class given is functional.
Take `COc1ccc(NC(=O)Nc2cccc3cccnc23)cc1`: the EC50 is 21.2 µM (active).
Still for that read-out and setting: to `O=C1C(CSCc2ccccc2)NC(=S)N1c1ccccc1` (centres undefined) belongs > 120 µM (not active); to `CCOc1ccc(C2CC(c3ccc(CC)cc3)Nc3nc(N)nn32)cc1` (centres undefined), 19.7 µM (active); to `Sc1nnc(-c2ccc(Cl)cc2Cl)n1-c1ccccc1`, 14.9 µM (active).
Same read-out and setting: to `CCOC(=O)c1cc(O)n2c(n1)nc1ccccc12` belongs 20.4 µM (active); to `CN1C(c2ccc(F)cc2)=CS/C1=C(/C#N)c1nnc(N2CCOCC2)n1-c1ccccc1`, > 120 µM (not active).
The same measure, in the same setting: to `Cc1ccc(Cn2ncn(-c3ccccc3)c2=O)cc1` belongs 7.14 µM (active).
Regarding `O=C1C2C3C=CC(C4CC34)C2C(=O)N1/N=C/c1c[nH]c2ccccc12` (centres undefined), the EC50 is 14.9 µM (active).

Tested on in a further assay: not listed separately
As to the kind of experiment: P. falciparum Dd2 growth inhibitors, dose response, SYBR Green, cherry-picked samples (AID 1159567). The class given is functional, cell-based.
Conditions: not given
Regarding `CCCN(C)C[C@@H]1Oc2cc(C#Cc3ccncc3)ccc2S(=O)(=O)N([C@H](C)CO)C[C@@H]1C`, the concentration at half-maximal activity (AC50) was 6.76 µM (active).
On the same count and under the same terms, to `O=C(C1CCC1)N1CC(=O)N2[C@H](CO)[C@@H](c3ccc(C#CCc4ccccc4)cc3)[C@H]2C1` belongs 9.44 µM (active); to `C/C=C/c1ccc([C@H]2[C@@H](CO)N(C(=O)C3CCCC3)[C@H]2CNCCC)cc1`, 4.85 µM (active).

Tested on in a further assay: not listed separately
As to the kind of experiment: Luminescence Cell-Based Dose Response HTS to Identify Activators of Luciferase Translation or Activity in H4 […] Cells. [Related pubchem assays: 1829 (Project Summary), 1814 (Primary HTS)]. It counts as functional.
Conditions: not given
Take `COc1ccc(NC(=O)Nc2cccc3cccnc23)cc1`: the EC50 was 5.48 µM (active).
On the same count and under the same terms, to `O=C1C(CSCc2ccccc2)NC(=S)N1c1ccccc1` (centres undefined) belongs > 120 µM (not active); to `CCOc1ccc(C2CC(c3ccc(CC)cc3)Nc3nc(N)nn32)cc1` (centres undefined), 10.5 µM (active).
`Sc1nnc(-c2ccc(Cl)cc2Cl)n1-c1ccccc1`: the EC50 is 56.4 µM (active).
On the same count and under the same terms, to `CCOC(=O)c1cc(O)n2c(n1)nc1ccccc12` belongs 11.4 µM (active).
Still for that read-out and setting: to `CN1C(c2ccc(F)cc2)=CS/C1=C(/C#N)c1nnc(N2CCOCC2)n1-c1ccccc1` belongs > 120 µM (not active); to `Cc1ccc(Cn2ncn(-c3ccccc3)c2=O)cc1`, 24.1 µM (active).
Still for that read-out and setting: to `O=C1C2C3C=CC(C4CC34)C2C(=O)N1/N=C/c1c[nH]c2ccccc12` (centres undefined) belongs > 120 µM (not active).

Tested on in the next assay: not listed separately
As to the kind of experiment: Shn3 3'UTR reporter inhibitors, dose response, cell-based, Clone20 osteoblasts, firefly luciferase, cherry-picked (AID 624132).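 Also: firefly luciferase luminescence from reporter carrying the Shn3 3'UTR in osteoblasts.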 It counts as functional.
Conditions: not given
On to `NS(=O)(=O)c1ccc(CNC(=S)NC(=O)c2ccco2)cc1`, for which the AC50 was 22.9 µM (active).

The target in another assay is T2, Corticotropin-releasing factor receptor 2/Corticotropin-releasing factor-binding protein (Homo sapiens, UniProt P24387+Q13324).
T2 sequence (Q13324 whole entry): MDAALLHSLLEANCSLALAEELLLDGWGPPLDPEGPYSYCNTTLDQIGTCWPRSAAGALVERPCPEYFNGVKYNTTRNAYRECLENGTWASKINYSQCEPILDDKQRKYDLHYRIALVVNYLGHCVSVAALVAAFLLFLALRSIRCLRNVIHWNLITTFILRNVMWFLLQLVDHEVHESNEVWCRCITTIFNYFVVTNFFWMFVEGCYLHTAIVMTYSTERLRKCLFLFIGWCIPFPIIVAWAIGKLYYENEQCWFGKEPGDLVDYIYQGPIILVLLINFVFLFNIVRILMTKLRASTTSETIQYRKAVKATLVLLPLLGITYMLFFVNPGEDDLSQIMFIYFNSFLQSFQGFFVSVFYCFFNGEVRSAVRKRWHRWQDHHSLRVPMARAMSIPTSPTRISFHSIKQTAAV
T2 sequence (P24387 whole entry): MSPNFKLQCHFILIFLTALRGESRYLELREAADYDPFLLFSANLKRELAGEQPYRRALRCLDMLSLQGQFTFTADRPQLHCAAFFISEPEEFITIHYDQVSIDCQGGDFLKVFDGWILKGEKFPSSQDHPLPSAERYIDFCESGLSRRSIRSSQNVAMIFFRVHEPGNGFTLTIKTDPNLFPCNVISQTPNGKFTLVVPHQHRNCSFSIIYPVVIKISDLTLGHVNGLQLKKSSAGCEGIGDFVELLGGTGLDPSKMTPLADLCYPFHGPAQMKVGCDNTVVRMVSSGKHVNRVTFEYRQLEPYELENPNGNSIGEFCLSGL
As to the kind of experiment: activators of CRF receptor 2 with binding protein – uHTS hits, confirmation (AID 602473). It counts as functional. Conditions: read-out: EC50_Mean.
For the molecule `CN1C(c2ccc(F)cc2)=CS/C1=C(/C#N)c1nnc(N2CCOCC2)n1-c1ccccc1`, the EC50 is > 53 µM (inactive).

The next assay concerns the target T2, Corticotropin-releasing factor receptor 2/Corticotropin-releasing factor-binding protein. As to the kind of experiment: Dose Response confirmation of uHTS hits for small molecule antagonists of the CRF-binding protein and CRF-R2 receptor complex. It counts as functional. The settings on record: read-out: IC50_Mean.
`CN1C(c2ccc(F)cc2)=CS/C1=C(/C#N)c1nnc(N2CCOCC2)n1-c1ccccc1`: the IC50 was > 47.1 µM (inactive).
